# Test results taken from US8017350B2, “Glimepiride- and insulin-induced glycosylphosphatidylinositol-specific phospholipase C regulation” (Sanofi-Aventis Deutschland GmbH, priority 2004, dated 2011).
# Like-named read-outs stand apart in the source and are kept apart here.
# Columns and labels:
# [1] = system: trypanosomal GPI-PLC (T. brucei); conditions: literature; cited from earlier work
# stability of compound 3 = type: physicochemical
# [2] = system: GPI-proteins 5′-Nuc, Gce1 and aP in isolated rat adipocytes; assay: localization of lipolytically cleaved and uncleaved GPI-proteins at hcDIGs, IcDIGs and total plasma membranes (TX-114 partitioning); type: cell-based; conditions: GPI-2350 50 μM, insulin 10 nM, glimepiride 20 μM; for 5′-Nuc amphiph IcDIGs / 5′-Nuc hydroph. IcDIGs / 5′-Nuc hydroph. hcDIGs / Gce1 amphiph IcDIGs / Gce1 hydroph. IcDIGs / Gce1 hydroph. hcDIGs / aP amphiph IcDIGs / aP hydroph. IcDIGs / aP hydroph. hcDIGs: amphiphilic version in hcDIGs of basal adipocytes set at 100; for 5′-Nuc hydroph. PM / Gce1 hydroph. PM / aP hydroph. PM: amphiphilic version in total plasma membranes of basal adipocytes set at 100; for 5′-Nuc amphiph hcDIGs / Gce1 amphiph hcDIGs / aP amphiph hcDIGs: basal set at 100
# [3] = system: pp59Lyn and Gce1 interaction with caveolin-1 in rat adipocytes; assay: dissociation of signaling proteins from caveolin (caveolin-1 immunoprecipitates of hcDIGs); type: cell-based; conditions: solubilized hcDIGs; FIG. 6
# Description: Solubilized DIGs (see above, 5-20 μg protein) were precleared by incubation with protein A/G-Sepharose and subsequent centrifugation (10,000×g, 5 min). The supernatant was incubated with anti-caveolin-1 antibodies (1:1000) preadsorbed on protein A/G-Sepharose in 1 ml of 10 mM Tris/HCl (pH 7.4), 150 mM NaCl, 1% TX-100 for 1 h at 4° C. The immune complexes were washed twice with the same buffer and then twice with buffer lacking TX-100 and finally subjected to SDS-PAGE performed in the absence of β-mercaptoethanol. The recovery of immunoprecipitated caveolin was normalized by homologous immunoblotting with anti-caveolin antibodies of the same blot following stripping of the membrane.
# Polypeptides separated by SDS-PAGE were transferred to polyvinylidene difluoride membranes using the semidry procedure as described in “Müller, G. et al., (2001) Mol. Cell. Biol. 21: 4553-4567”. Washed membranes were incubated with anti-caveolin-1 (1:2000), anti-pp59^Lyn (1:1250), anti-aP (1:500), anti-5′-Nuc (1:750) and anti-IRS-1 (1:2000) antibodies for 4 h at 15° C. Washed membranes were incubated with horseradish peroxidase-coupled secondary goat anti-mouse (1:2000) or goat anti-rabbit IgG (1:4000) antibodies. Labeled proteins were visualized by enhanced chemiluminescence.
# FIG. 6: Effect of GPI-2350 on the glimepiride/insulin-induced dissociation of signaling proteins from caveolin. Isolated rat adipocytes were treated (5 min, 37° C.) without or with GPI-2350 (left panels, 50 μM; right panels, increasing conc.) and then incubated (120 min, 37° C.) in the absence or presence of insulin (10 nM) or glimepiride (20 μM). hcDIGs were prepared from the adipocytes and then solubilized. Caveolin-1 immunoprecipitates prepared from the solubilized hcDIGs were assayed for the presence of pp59^Lyn and Gce1 by immunoblotting and photoaffinity-labeling, respectively. […]
# isolated rat adipocytes = assay: isoproterenol-induced lipolysis measured as release of NBD-FA; type: cell-based
# Description: Electroporation was performed as described in “Müller, G. et al., (2000) Mol. Cell. Biol. 20: 4708-4723”. Lipolysis was determined as release of glycerol or fluorescent NBD-FA from prelabeled and isoproterenol-stimulated adipocytes as described in “Müller, G. et al., (2003) Biochimie 85: 1245-1256”. Gce1 was detected by photolabeling of solubilized plasma membranes or hc/lcDIGs (10-50 μg protein) with 8-N3—[^32P]cAMP and subsequent phosphorimaging as described in “Müller, G. et al., (1994) Biochemistry 33: 12149-12159”. 5′-Nuc, aP and AChE activities were measured according to “Eliakim, R. et al., (1990) Biochim. Biophys. Acta 1355: 293-302”. Protein was determined using the BCA protein determination kit from Pierce (Rockford, Ill.) and BSA as calibration standard. SDS-PAGE was performed using precast gels (Novex, San Diego, Calif.; 10% Bis-Tris resolving gel, morpholinopropanesulfonic acid-SDS running buffer). Lumiimages were evaluated on a LumiImager using LumiImager software (Roche Diagnostics). Phosphor- and fluorescence images were processed and quantified using the Storm 860 PhosphorImager system (Molecular Dynamics, Gelsenkirchen, Germany). Figures were constructed using the ADOBE PHOTOSHOP software (Adobe Systems, Mountain View, Calif.).
# FIG. 9: Isolated rat adipocytes were labeled with 0.5 mM NBD-FA (60 min, 37° C.), washed and then incubated (5 min, 37° C.) in the absence (Panels B, D) or presence of GPI-2350 (50 μM; Panels A, C) prior to challenge with increasing concentrations of glimepiride (Panels A, B) or insulin (Panels C, D). After further incubation (120 min, 37° C.) without or with isoproterenol (1 μM) as indicated, total cell suspensions were extracted with chloroform/heptane/methanol/0.1 N HCl (3/3/2/1, by vol.). The organic phases were analyzed by thin layer chromatography (diethylether/petrolether/acetic acid 78/22/1, by vol.) and fluorescence imaging in parallel with NBD-FA as marker. A typical experiment with 2 independent labelings and incubations is shown repeated once with similar results. TAG, triacylglycerol.
# [4] = cited from earlier work
compound,measurement,setting,value
CCCCCCCCCCCCOP(=O)(O)OC1C(O)C(O)C(O)C(O)C1O (stereo not shown) [myo-inositol-1-O-dodecylphosphate],inhibition in words,[1],inhibit the trypanosomal GPI-PLC
"CCCCCCCCCCCCP1(=O)OC2C(O)C(O)C(O)C(O)C2O1 (racemic) [GPI-2350, myo-inositol-1,2-cyclo-dodecylphosphonic acid]",stability as dried amorphous solid,stability of compound 3; 4° C.,dried amorphous solid for years
same,stability in methanol,stability of compound 3; methanol,stable in methanol for days
Insulin: Human recombinant insulin,5′-Nuc amphiph IcDIGs,[2],28 ± 4 arb. units
same,5′-Nuc hydroph. IcDIGs,[2],7 ± 2 arb. units
same,5′-Nuc hydroph. hcDIGs,[2],34 ± 8 arb. units
same,Gce1 amphiph IcDIGs,[2],35 ± 9 arb. units
same,Gce1 hydroph. IcDIGs,[2],19 ± 5 arb. units
same,Gce1 hydroph. hcDIGs,[2],58 ± 12 arb. units
same,aP amphiph IcDIGs,[2],27 ± 5 arb. units
same,aP hydroph. IcDIGs,[2],4 ± 2 arb. units
same,aP hydroph. hcDIGs,[2],69 ± 8 arb. units
same,5′-Nuc hydroph. PM,[2],14 ± 5 arb. units
same,Gce1 hydroph. PM,[2],29 ± 7 arb. units
same,aP hydroph. PM,[2],31 ± 6 arb. units
same,5′-Nuc amphiph hcDIGs,[2],81 ± 17 arb. units
same,Gce1 amphiph hcDIGs,[2],64 ± 8 arb. units
same,aP amphiph hcDIGs,[2],44 ± 7 arb. units
same,induced maximal losses of pp59Lyn and Gce1 from caveolin-1 immunoprecipitates,[3],35-45%
same,IC50,"isolated rat adipocytes; absence of GPI-2350, read-out: apparent IC50 for inhibition of NBD-FA release",100 nM
same,IC50,"isolated rat adipocytes; presence of GPI-2350 (50 μM), read-out: apparent IC50 for inhibition of NBD-FA release",300 nM
CCCCCCCCCCCCP(=O)(O)O[C@@H]1[C@H](O)[C@H](O)[C@@H](O)[C@H](O)[C@H]1O[C@H]1O[C@H](CO)[C@@H](O)[C@H](O)[C@H]1N [GMI-1-dodecylphosphonate],inhibition in words,[1],considerably more inhibitory than the corresponding hexyl derivative
"N[C@H]1[C@@H](O[C@@H]2[C@@H](O)[C@H](O)[C@@H](O)[C@H]3OP(=O)(O)O[C@H]32)O[C@H](CO)[C@@H](O)[C@@H]1O [glucosamine (α1→6)-inositol-1,2-cyclic phosphate]",inhibition in words,[1],better inhibitor than GMI-1-phosphate
"CCC1=C(C)CN(C(=O)NCCc2ccc(S(=O)(=O)NC(=O)N[C@H]3CC[C@H](C)CC3)cc2)C1=O [Glimepiride, glimepiride]",5′-Nuc amphiph IcDIGs,[2],59 ± 9 arb. units
same,5′-Nuc hydroph. IcDIGs,[2],9 ± 3 arb. units
same,5′-Nuc hydroph. hcDIGs,[2],48 ± 10 arb. units
same,Gce1 amphiph IcDIGs,[2],79 ± 15 arb. units
same,Gce1 hydroph. IcDIGs,[2],12 ± 5 arb. units
same,Gce1 hydroph. hcDIGs,[2],69 ± 9 arb. units
same,aP amphiph IcDIGs,[2],49 ± 8 arb. units
same,aP hydroph. IcDIGs,[2],10 ± 2 arb. units
same,aP hydroph. hcDIGs,[2],88 ± 19 arb. units
same,5′-Nuc hydroph. PM,[2],19 ± 5 arb. units
same,Gce1 hydroph. PM,[2],40 ± 11 arb. units
same,aP hydroph. PM,[2],54 ± 12 arb. units
same,5′-Nuc amphiph hcDIGs,[2],35 ± 10 arb. units
same,Gce1 amphiph hcDIGs,[2],25 ± 10 arb. units
same,aP amphiph hcDIGs,[2],10 ± 3 arb. units
same,induced maximal losses of pp59Lyn and Gce1 from caveolin-1 immunoprecipitates,[3],75-85%
same,IC50,"isolated rat adipocytes; Rattus norvegicus, Adipocyte, isoproterenol-induced adipocytes, FIG. 9, read-out: IC50 for reduction of NBD-FA release",3000 nM
same,reduction of NBD-FA release in the presence of inhibitor,"isolated rat adipocytes; in the presence of 50 μM glimepiride (so in the source), Panels A, B",completely abrogated
same,time of greatest blood glucose lowering effects after the dose,"[4]; human, in vivo",≤ 4 h
same,"hypoglycaemia, patients",[4]; receiving concomitant insulin for 6 months,≤ 50%
